# pIC50: −log10 of the molar value.
# How the values were obtained:
# Estrogen receptor beta [1] = target: T1, Estrogen receptor beta (Homo sapiens, UniProt Q92731); assay: Displacement of [3H]estradiol from Estrogen receptor beta
# Estrogen receptor [2] = target: T2, Estrogen receptor (Homo sapiens, UniProt P03372); assay: Displacement of [3H]estradiol from Estrogen receptor alpha
# T2 sequence (P03372 whole entry): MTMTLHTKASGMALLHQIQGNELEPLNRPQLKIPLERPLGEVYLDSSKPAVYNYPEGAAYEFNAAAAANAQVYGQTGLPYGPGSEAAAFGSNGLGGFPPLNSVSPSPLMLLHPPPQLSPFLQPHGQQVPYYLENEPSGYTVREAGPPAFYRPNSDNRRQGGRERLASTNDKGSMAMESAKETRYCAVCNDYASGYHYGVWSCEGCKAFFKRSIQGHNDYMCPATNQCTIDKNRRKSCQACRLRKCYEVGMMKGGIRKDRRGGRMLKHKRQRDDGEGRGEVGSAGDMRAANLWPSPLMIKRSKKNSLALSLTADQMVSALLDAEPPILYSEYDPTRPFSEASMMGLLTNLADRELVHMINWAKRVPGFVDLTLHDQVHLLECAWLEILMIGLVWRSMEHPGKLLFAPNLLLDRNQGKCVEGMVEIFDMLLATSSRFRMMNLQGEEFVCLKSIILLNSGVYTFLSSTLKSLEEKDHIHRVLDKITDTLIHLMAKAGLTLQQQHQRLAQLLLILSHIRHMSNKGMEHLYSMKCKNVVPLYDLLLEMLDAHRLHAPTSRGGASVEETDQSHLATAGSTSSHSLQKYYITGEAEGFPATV
# Estrogen receptor beta [3] = target: T1, Estrogen receptor beta; assay: Inhibitory activity against Estrogen receptor beta
# Estrogen receptor [4] = target: T2, Estrogen receptor; assay: Inhibitory activity against Estrogen receptor alpha
# T1 sequence (Q92731 whole entry): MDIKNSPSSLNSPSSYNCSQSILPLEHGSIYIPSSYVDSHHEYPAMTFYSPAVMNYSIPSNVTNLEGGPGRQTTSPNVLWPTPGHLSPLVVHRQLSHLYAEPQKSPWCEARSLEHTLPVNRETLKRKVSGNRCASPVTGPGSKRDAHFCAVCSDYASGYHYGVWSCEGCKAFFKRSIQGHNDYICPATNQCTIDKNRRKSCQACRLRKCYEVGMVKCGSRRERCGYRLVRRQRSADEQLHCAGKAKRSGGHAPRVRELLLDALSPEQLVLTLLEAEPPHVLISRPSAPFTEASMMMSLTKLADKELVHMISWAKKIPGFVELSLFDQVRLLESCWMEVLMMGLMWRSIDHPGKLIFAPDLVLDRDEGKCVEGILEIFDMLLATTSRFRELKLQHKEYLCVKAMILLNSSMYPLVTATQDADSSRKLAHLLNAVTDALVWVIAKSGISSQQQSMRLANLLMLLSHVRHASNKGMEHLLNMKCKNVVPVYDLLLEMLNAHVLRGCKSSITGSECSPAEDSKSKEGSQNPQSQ
Compound,RBA (Estrogen receptor beta [1]),RBA (Estrogen receptor [2]),pIC50 (Estrogen receptor beta [3]),pIC50 (Estrogen receptor [4])
CCc1c(-c2ccc(O)cc2)oc(-c2ccc(O)cc2)c1-c1ccc(OC)cc1,0.91%,2.5%,–,–
CCc1c(-c2ccc(O)cc2)oc(-c2ccc(O)cc2)c1-c1ccc(OCCN2CCCCC2)cc1,3.1%,75%,6.32,7.19
CCc1c(-c2ccc(O)cc2)oc(-c2ccccc2)c1-c1ccc(OCCN2CCCCC2)cc1,0.43%,3.8%,–,–

# Second part, the molecule after the results:
RBA (Estrogen receptor beta [1]),RBA (Estrogen receptor [2]),pIC50 (Estrogen receptor beta [3]),pIC50 (Estrogen receptor [4]),Compound
0.47%,32%,–,–,Cc1c(-c2ccc(O)cc2)oc(-c2ccc(O)cc2)c1-c1ccc(OCCN2CCCCC2)cc1
0.06%,0.36%,–,–,CCc1c(-c2ccc(OCCN3CCCCC3)cc2)oc(-c2ccc(O)cc2)c1-c1ccc(O)cc1
20%,60%,–,–,CCc1c(-c2ccccc2)oc(-c2ccc(O)cc2)c1-c1ccc(OCCN2CCCCC2)cc1
4%,34%,–,–,CCCc1c(-c2ccc(O)cc2)oc(-c2ccc(O)cc2)c1-c1ccc(OCCN2CCCCC2)cc1

# Reference: ChEMBL document CHEMBL1133963, “Furans with basic side chains: synthesis and biological evaluation of a novel series of antagonists with selectivity for the estrogen receptor alpha” (Bioorg Med Chem Lett, 2001)
